Test [1] deals with AI-2 activity of APEC O78. The test can be described thus: AI-2 bioluminescence indicator assay (V. harveyi BB170), APEC O78 supernatant. The class given is cell-based, avian pathogenic E. coli (APEC) O78. To be noted: Escherichia coli, read-out: % Inhibtion of AI-2 activity. As to the method:
(§1) Overnight culture of APEC O78 prepared in LB broth was adjusted to an optical density (OD600) of 0.05 (7 × 10^7 CFU/mL) in fresh LB broth. One hundred micro-liters of the culture was transferred to a 96-well plate and 1µL (100 μM final concentration) of the compound was added to each well using a pin tool. Chloramphenicol (40 μg/mL) or kanamycin (30 μg/mL) and 1μL of 100% DMSO were included as controls in each plate. Plates were incubated at 37 °C for 10 h with shaking in a Sunrise^TM Tecan plate reader (Tecan Group Ltd. San Jose, CA, USA) and the growth was kinetically monitored every 30 min by measuring the OD at 600 nm.
(§2) The AI-2 bioluminescence assay was performed as described previously. Briefly, APEC O78 cultures grown in the presence of SMs (see above) were centrifuged at 5000 × g for 10 min, and cell-free culture supernatants were prepared by using a 0.22 µm filter 96 well plate (Millipore). The bioluminescence reporter V. harveyi BB170 (AI-1^+ and AI-2^-) was grown overnight in AB medium at 30 °C aerobically with shaking. The overnight culture was diluted to 1:5000 in fresh AB medium and incubated at 30 °C for 3 h. Following incubation, 180 μL of the V. harveyi BB170 culture was distributed into each well of a 96-well plate and mixed with 20 µL of the cell free culture supernatant, the plate was then incubated at 30 °C for 2.5 h in the dark and the bioluminescence was measured using in vivo imaging system (IVIS Lumina Series III, PerkinElmer, USA). […] Cell-free culture supernatants collected from overnight cultures of V. harveyi BB120 (AI-1^+andAI-2^+) and E. coli DH5α (a strain lacks AI-2) were used as controls. Bioluminescence of SMs treated culture supernatants were compared to DMSO treated control. The Z-score was calculated to evaluate the quality of the bioluminescence screening. Four independent experiments were conducted for the 69 compounds that inhibited ≥ 75% of the AI-2 mediated bioluminescence and the average inhibition percentage was calculated.

In test [2] the test system is AI-2 activity of APEC O2. Description: AI-2 bioluminescence indicator assay, APEC O2. The class given is cell-based, avian pathogenic E. coli (APEC) O2. To be noted: Escherichia coli, read-out: % Inhibtion of AI-2 activity. As to the method:
as §1, §2
(§3) The selected compounds were also tested for inhibition of AI-2 production in other APEC serotypes such as O1, O2, O8, O15, O18, O35, O109, and O115 that are commonly implicated in colibacillosis using the same procedure described above.

For test [3], the system named is AI-2 activity of O15. Description: AI-2 bioluminescence indicator assay, APEC O15. The class given is cell-based, avian pathogenic E. coli (APEC) O15. The settings on record: Escherichia coli, read-out: % Inhibtion of AI-2 activity, serotype O15, bioluminescence vs DMSO treated control. The procedure:
as §1, §2, §3

The test system of test [4] is AI-2 activity of O18. Description: AI-2 bioluminescence indicator assay, APEC O18. It is filed as cell-based, avian pathogenic E. coli (APEC) O18. To be noted: Escherichia coli, read-out: % Inhibtion of AI-2 activity, serotype O18, bioluminescence vs DMSO treated control. The procedure:
as §1, §2, §3

The test system of test [5] is AI-2 activity of O35. The test can be described thus: AI-2 bioluminescence indicator assay, APEC O35. The class given is cell-based, avian pathogenic E. coli (APEC) O35. To be noted: Escherichia coli, read-out: % Inhibtion of AI-2 activity, serotype O35, bioluminescence vs DMSO treated control. The procedure: as §1, §2, §3
For test [6], the system named is AI-2 activity of O109. The test can be described thus: AI-2 bioluminescence indicator assay, APEC O109. The settings on record: Escherichia coli, read-out: % Inhibtion of AI-2 activity, serotype O109, bioluminescence vs DMSO treated control. It is filed as cell-based, avian pathogenic E. coli (APEC) O109. The procedure:
as §1, §2, §3

For test [7], the system named is APEC O2 in HD-11 cells. The test can be described thus: Intracellular survival assay, APEC O2 in HD-11 cells. It is filed as cell-based, avian pathogenic E. coli (APEC) O2. To be noted: MOI 100, 100 µM, 6 h; for reduction of intracellular survival of APEC O2: vs DMSO treated control. As to the method: The effect of the selected AI-2 inhibitors on the survival of APEC in macrophage cells was tested as described before. Briefly, HD-11 cells was grown as described above and infected with 1 × 10^7 CFU (MOI = 100) of mid-log phase APEC strains (O78, O1 and O2) at 37 °C for 1 h. Cells were washed with PBS and treated with gentamicin (150 μg/mL) for 1 h to kill the extracellular bacteria. The cells were then washed and incubated with 100 µM of each compound in media containing 10 μg/mL of gentamicin at 37 °C for 6 h. Following treatment, cells were washed, lysed with 0.1% Triton X-100 for 5 min, ten-fold serially diluted in PBS and plated on LB agar plates to determine CFUs. Cells treated with chloramphenicol (40 μg/mL) and 1 μL of 100% DMSO were used as controls. The experiment was conducted two times with four replicates in each experiment. Intracellular survival was expressed as the log change of APEC CFUs in the AI-2 inhibitors treated cells.

In test [8] the test system is QS-regulated and virulence factors genes of APEC O78. Description: qRT-PCR of QS-regulated and virulence factor genes. The class given is cell-based, avian pathogenic E. coli (APEC) O78. The settings on record: APEC O78, 100 µM, 10 h, ∆∆Ct vs DMSO. The procedure:
The effect of the selected AI-2 inhibitors on the expression of QS-regulated and virulence factors genes of APEC was determined using qRT-PCR. APEC O78 was grown in the presence of 100 µM of each compound in a 96-well plate at 37 °C for 10 h. APEC O78 culture treated with 1µL of 100% DMSO was used as control. Total RNA was extracted from duplicate wells for each compound (200 µL) using a miRNeasy Mini Kit (Qiagen). RNA quality and quantity was determined by nanodrop 2000 C spectrophotometer (Thermo scientific). Traces of DNA were removed using Genomic DNA removal mix (Qiagen). Approximately, 5 μg of purified RNA was used to synthesize cDNA using the Qiagen RT^2 First Strand Kit (Qiagen). The qRT-PCR was performed using SensiMix^TM SYBR® Hi-ROX qPCR Master Mix (Bioline) according to manufacturer instructions in a realplex^2 mastercycler (Eppendorf) with 55 °C annealing temperature. Gene-specific primers were designed using PrimerQuest Tool and obtained from integrated DNA technologies (IDT). The data were normalized to the house-keeping gene, glyceraldehyde-3-phosphate dehydrogenase (GAPDH). The relative fold change was calculated using the ∆∆Ct method. Three independent experiments were conducted.

For the compound `CCc1ccccc1Nc1nc(-c2c(C)nc3ccccn23)cs1` [C8, N-(2-ethylphenyl)-4-(2-methylimidazo[1,2-a]pyridin-3-yl)-1,3-thiazol-2-amine], the inhibition at 100 µM in test [1] is 98%; in test [2], 94%; in test [3] it was 25%; in test [4], 54%; in test [5], 57%; in test [6] it was no less than 75%. Moreover, the “reduction of intracellular survival of APEC O2” value in test [7] is “up to 0.8 logs”. In test [8], the “expression of fliP” value is “down-regulated”. Besides, the “expression of ugpC” value in test [8] is “down-regulated”.

`Cc1ccc(CN2CCN(CCCc3ccccc3)CC2)cc1` [C5, 1-(4-methylbenzyl)-4-(3-phenylpropyl)piperazine]: the inhibition at 100 µM in test [1] is 83%; in test [2], 89%; in test [3], 45%; in test [4] it was 61%; in test [5] it was 68%; in test [6], 69%. For the same compound, the “clearance of intracellular APEC O2” value in test [7] turned out to be 100%. Also, the “reduction of intracellular survival of APEC O2” value in test [7] is reported as ~ 3.3 logs. Further, the “expression of fliP” value in test [8] was “down-regulated”. The expression of fpr entry in test [8] is listed as “down-regulated”. For the same compound, in test [8], the expression of hha entry was “down-regulated”. The expression of wzb entry in test [8] is given as “down-regulated”.

The values above are taken from PMC7000209, “Novel small molecule modulators of quorum sensing in avian pathogenic Escherichia coli (APEC)” (Virulence, 2018).
